Results as given in publication PMC4472245, “Alternative divalent cations (Zn^2+, Co^2+, and Mn^2+) are not mutagenic at conditions optimal for HIV-1 reverse transcriptase activity” (BMC Biochemistry, 2015).
Read-outs that look alike come from different tables or passages of the source.

Experiments:
[1] = biological target: T1, HIV RT (HIV-1 reverse transcriptase, p66/p51) (HIV-1 M:B_HXB2R, UniProt P04585); details: read-out: ^d K m / μM, 0.4 mM free Zn2+ instead of Mg2+, DNA primer-template, pH 7.7, 37 °C
T1 construct: gene gag-pol
Description: steady-state running-start incorporation, gel on HIV RT (HIV-1 reverse transcriptase, p66/p51)

[2] = biological target: T1, HIV RT (HIV-1 reverse transcriptase, p66/p51); details: read-out: ^d K m / μM; 0.4 mM free Zn2+ instead of Mg2+; DNA primer-template with matched C.G 3' end; next correct nucleotide; pH 7.7, 37 °C, 80 mM KCl

SMILES: Nc1ncnc2c1ncn2[C@H]1C[C@H](O)[C@@H](COP(=O)(O)OP(=O)(O)OP(=O)(O)O)O1 [dATP]
- Km ([1]; misinsertion opposite template C (C.A mismatch)): 518 ± 43 µM

SMILES: Nc1ccn([C@H]2C[C@H](O)[C@@H](COP(=O)(O)OP(=O)(O)OP(=O)(O)O)O2)c(=O)n1 [dCTP]
- Km [2]: 0.04 ± 0.01 µM

SMILES: Nc1nc2c(ncn2[C@H]2C[C@H](O)[C@@H](COP(=O)(O)OP(=O)(O)OP(=O)(O)O)O2)c(=O)[nH]1 [dGTP]
- Km ([1]; correct insertion opposite template C (C.G), 55 μM dATP): 0.19 ± 0.09 µM

SMILES: Cc1cn([C@H]2C[C@H](O)[C@@H](COP(=O)(O)OP(=O)(O)OP(=O)(O)O)O2)c(=O)[nH]c1=O [dTTP]
- Km ([1]; misinsertion opposite template C (C.T mismatch), 55 μM dATP): 244 ± 102 µM
